This note sets out measurements from ChEMBL document CHEMBL1949522, “Acremostrictin, a highly oxygenated metabolite from the marine fungus Acremonium strictum” (J Nat Prod, 2011).

The test system of test [1] is Escherichia coli. Description: Antibacterial activity against Escherichia coli ATCC 35270 after 24 hrs. The class given is functional. The following applies: ATCC 35270, 24 h.
Test [2] deals with Proteus vulgaris. Description: Antibacterial activity against Proteus vulgaris ATCC 3851 after 24 hrs. The following applies: ATCC 3851, 24 h. The class given is functional.
The subject of test [3] is Staphylococcus aureus. Description: Antibacterial activity against Staphylococcus aureus ATCC 6538p after 24 hrs. The class given is functional.
For test [4], the system named is Micrococcus luteus. Nature of the test: Antibacterial activity against Micrococcus luteus IFO 12708 after 24 hrs. The class given is functional. To be noted: IFO 12708, 24 h.
The subject of test [5] is Bacillus subtilis. Nature of the test: Antibacterial activity against Bacillus subtilis ATCC 6633 after 24 hrs. The class given is functional. To be noted: ATCC 6633, 24 h.
The subject of test [6] is Salmonella typhimurium. Nature of the test: Antibacterial activity against Salmonella Typhimurium ATCC 14028 after 24 hrs. The class given is functional, Salmonella enterica subsp. enterica serovar Typhimurium. To be noted: Salmonella enterica, ATCC 14028, 24 h.
Test [7] relates to HaCaT. Nature of the test: Antioxidant activity in human HaCaT cells assessed as inhibition of H2O2-induced cell death pretreated for 1 hr prior to H2O2 challenge measured after 24 hrs by spectrophotometric analysis. The class given is functional, cell-based.
Test [8] concerns Radical scavenging activity. Description: Antioxidant activity assessed as DPPH radical-scavenging activity after 30 mins by spectrophotometric analysis. The class given is functional.
Test [9] deals with K562. Nature of the test: Anticancer activity against human K562 cells. The class given is functional, cell-based.

In brackets after ≈: the same amount, converted by molar mass. Activity calls are given as the source filed them. The rule behind the calls is not given here.

Regarding `CC1=C[C@@H]2C[C@]3(C)OC(=O)[C@@](O)([C@H]3C)[C@]2(O)C1=O` (relative stereo), the MIC was over 100 µg/mL in test [1]; 12.5 µg/mL (≈ 49.6 µM) in test [2]; over 100 µg/mL in [3]; 50 µg/mL (≈ 198 µM) in test [4]; over 100 µg/mL in test [5]; 50 µg/mL (≈ 198 µM) in test [6]. In test [7], the inhibition entry was “Dose-dependent effect”. Further, the Activity result in test [8] is “Dose-dependent effect”. Moreover, the IC50 in test [8] stood at 2.1 mM. Besides, the outcome in [9] was inactive.
